Results on six molecules are retold here after patent US20070275935A1, “Estratriene Derivatives” (priority 2003, published 2007).

Each structure is given as a SMILES string.

For one experiment, the system named is Pulmonary fibroblasts. The experiment is described as follows: bFGF-induced proliferation of human pulmonary fibroblasts. In kind it is cell-based. To be noted: for pFib - bFGF: inhibition of bFGF (300 pM)-induced proliferation, mean and SEM, minimum 3 experiments, 1 μM, * not defined; for effect on bFGF-induced increase in pulmonary fibroblast cell number, in words: concentration range of 1 to 1000 nM, bFGF 300 pM, 48 h. The procedure: Samples of parenchyma from human lung transplant recipients were dissected away from the pleura, chopped into fragments of less than 1 mm^2 and allowed to adhere to plastic culture dishes in a minimal volume of DMEM containing serum (10%) and antibiotics (as used for HASM culture). After the tissue fragments had adhered to the base of the dish additional medium was added. Medium was changed twice weekly until an explant culture formed, at which time the tissue fragments were removed and the cells were passaged in a 1:3 split ratio by exposure to trypsin weekly to produce pulmonary fibroblast cultures.
Pulmonary fibroblasts were cultured in DMEM, serum-deprived for 24 h, in the presence or absence of the test compounds, and then stimulated with 300 pM bFGF for 48 h before harvest and counting of viable cells. An increase pulmonary fibroblast cell number was prevented by 4NOM over the concentration range of 1 to 1000 nM.
A range of the disclosed compounds was subsequently examined using the above assay system, and the results are summarized in Column E of Table 4. […] The proliferation of parenchymal fibroblasts is important in the development of pulmonary fibrosis.

The next experiment addresses T1, Estrogen Receptor (ER) (Rattus norvegicus, UniProt P06211).
T1 construct: using rat uterine cytosol as a source of ER; from tissue; host or cells: rat uterus, cytosol fraction (30000 x g supernatant)
T1 sequence (P06211 1-600): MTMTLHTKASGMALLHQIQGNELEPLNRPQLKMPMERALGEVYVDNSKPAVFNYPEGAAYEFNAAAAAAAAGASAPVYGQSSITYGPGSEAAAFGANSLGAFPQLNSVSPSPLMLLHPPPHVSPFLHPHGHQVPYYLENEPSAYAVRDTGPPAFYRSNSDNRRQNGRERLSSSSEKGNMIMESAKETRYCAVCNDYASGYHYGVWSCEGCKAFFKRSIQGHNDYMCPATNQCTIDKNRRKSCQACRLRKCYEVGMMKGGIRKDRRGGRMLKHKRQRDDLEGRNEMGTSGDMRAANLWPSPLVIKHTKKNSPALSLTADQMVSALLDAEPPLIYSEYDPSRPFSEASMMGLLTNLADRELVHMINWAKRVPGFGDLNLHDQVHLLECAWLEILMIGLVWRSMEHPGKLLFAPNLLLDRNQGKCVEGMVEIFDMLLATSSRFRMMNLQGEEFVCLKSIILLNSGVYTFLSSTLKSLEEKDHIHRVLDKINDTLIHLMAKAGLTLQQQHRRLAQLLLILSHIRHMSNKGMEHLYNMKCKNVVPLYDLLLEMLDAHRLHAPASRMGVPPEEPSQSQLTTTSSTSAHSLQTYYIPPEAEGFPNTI
The experiment is described as follows: Estrogen receptor binding assay, 3H-estradiol displacement from rat uterine cytosol. To be noted: for ER affinity (pIC50 ^3H-E2 displacement): rat uterine cytosol, 0.2 nM [3H]-E2, tested up to 10 μM; for displacement of ^3H-Estradiol, in words: concentrations up to 10 μM; for IC50: read-out: ER-RLB pIC50 (converted). In short, it runs like this: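 Cytosol from Brown Norway rat uteri, homogenised in 10 mM Tris pH 7.4 with EDTA, glycerol and PMSF, spun at 30000×g, diluted to about 1 mg/ml protein.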

The subject of experiment [1] is type II airway epithelial cell line, A549. In words: Proliferation of A549 cells in response to 5% FCS. The note with it: for effect on proliferation of A549 cells, in words (FIG. 2): 5% FCS, 48 h; for A549 PIC50 / IC50: proliferation in response to 5% FCS, pIC50 of 4.00 = inactive; for IC50: Homo sapiens, A549, read-out: A549 PIC50 (converted). In kind it is cell-based, human.

[2] abbreviates: 3H-estradiol displacement, cytosolic preparations of rat uterus, pIC50 of 4.00 = inactive.

On to `COc1cc2c(cc1O)CC[C@@H]1[C@@H]2CC[C@]2(C)[C@@H](O)CC[C@@H]12` [2-methoxyestradiol, reference compound], for which the “pFib - bFGF” value with Pulmonary fibroblasts is 62 ± 20*. In addition, the “ER affinity (pIC50 ^3H-E2 displacement)” value on Estrogen Receptor (ER) is reported as 6.8. Further, the “effect on proliferation of A549 cells, in words (FIG. 2)” value in experiment [1] (concentration not given) is “effective inhibitor”. Besides, the “A549 PIC50” value in experiment [1] came out at 6.00.
With `COc1cc2c(cc1O)C(=NOCc1ccc([N+](=O)[O-])cc1)C[C@@H]1[C@@H]2CC[C@]2(C)[C@@H](O)CC[C@@H]12` [CP-DM-2-11-7, 2-methoxy-6-(4-nitrobenzyloxy)iminoestradiol], in the experiment on Pulmonary fibroblasts, the “effect on bFGF-induced increase in pulmonary fibroblast cell number, in words” value was “significantly reduced the proliferative response” and the “pFib - bFGF” value is 63 ± 15*. Further, at Estrogen Receptor (ER), the “displacement of ^3H-Estradiol, in words” value is listed as “little or no detectable displacement” and the “ER affinity (pIC50 ^3H-E2 displacement)” value is on record as less than 5.0. Moreover, the “effect on proliferation of A549 cells, in words (FIG. 2)” value in experiment [1] (concentrations below 3 μM) is reported as “no detectable effect”. The “A549 PIC50” value in experiment [1] is 4.89.
For the molecule `COc1cc2c(cc1O)C(=NOCc1ccc([N+](=O)[O-])cc1)C[C@@H]1[C@@H]2CC[C@]2(C)C(=NO)CC[C@@H]12` [CP-DM-3-91, 2-methoxy-6-(4-nitrobenzyloxy)iminoestrone-17-oxime], in the experiment with Pulmonary fibroblasts, the “effect on bFGF-induced increase in pulmonary fibroblast cell number, in words” value is on record as “prevented” and the “pFib - bFGF” value was 49 ± 14*. The “pFib - bFGF” value with Pulmonary fibroblasts (listed as 4NOM) is reported as “significant inhibitory activity”. For the same molecule, on Estrogen Receptor (ER) (setting [2]), the “ER-RLB pIC50” value came out at 4.26. Also, at Estrogen Receptor (ER), the “displacement of ^3H-Estradiol, in words” value is “little or no detectable displacement” and the “ER affinity (pIC50 ^3H-E2 displacement)” value is recorded as less than 5.0. Also, the “A549 PIC50” value in experiment [1] is given as 4.99.
As to `C[C@]12CC[C@@H]3c4ccc(O)cc4CC[C@H]3[C@@H]1CC/C2=N\OCc1cccc([N+](=O)[O-])c1` [CP-DM-3-102, estrone-17-(3-nitrobenzyl)oxime], the “pFib - bFGF” value in the experiment with Pulmonary fibroblasts was 96 ± 4*. Also, the IC50 at Estrogen Receptor (ER) (setting [2]) is 2400 nM; in experiment [1], 12.6 µM.
Taken in the same sequence, the figures for `COc1cc2c(cc1O)/C(=N/OCc1cc(F)cc(F)c1)C[C@@H]1[C@@H]2CC[C@]2(C)[C@@H](O)CC[C@@H]12` [CP-DM-4-35, 6-(3,5-difluorobenzyloxy)imino-2-methoxyestradiol] were 22 ± 14, 5250 nM and 3.16 µM.
Regarding `COc1cc2c(cc1O)/C(=N/OCc1ccc(SC(F)(F)F)cc1)C[C@@H]1[C@@H]2CC[C@]2(C)[C@@H](O)CC[C@@H]12` [CP-DM-4-65, 2-methoxy-6-(4-trifluoromethylthiobenzyloxy)iminoestradiol], the “pFib - bFGF” value with Pulmonary fibroblasts was 32 ± 23. The IC50 on Estrogen Receptor (ER) (setting [2]) is 646 nM; in experiment [1] it was 3.16 µM.
